Experimental data as given in ChEMBL document CHEMBL4476885, “Multisubstituted 4h-thiazolo[4,5-e][1,4]diazepine-5,8-dione derivative and use thereof” (2017).

Each compound was assayed on Mus musculus (assay: Antiinflammatory activity in iv dosed ICR mouse model of CLP-induced sepsis assessed as increase in survival rate).
Assay type: functional

Question: Which Activity does the source give for CN1C(=O)C2CCCCN2C(=O)c2sc(Sc3ccccc3)nc21 (stereo not drawn) here?
Answer: 60%

Question: How did the Activity turn out when COc1ccc(CNc2nc3c(s2)C(=O)N(C)CC(=O)N3Cc2ccccc2)cc1 was run?
Answer: 40%

Question: How did the Activity turn out when CCCSc1nc2c(s1)C(=O)N1CCCCC1C(=O)N2 (stereo not drawn) was run?
Answer: 40%

Question: Which Activity does the source give for O=C1C2CCCN2C(=O)c2sc(N3CCCCC3)nc2N1Cc1ccccc1 (stereo not drawn) here?
Answer: 40%

Question: How did the Activity turn out when CCCCNc1nc2c(s1)C(=O)N(Cc1ccccc1)CC(=O)N2 was run?
Answer: 40%

Question: CCN1C(=O)C2CCCN2C(=O)c2sc(NCc3ccc(OC)cc3)nc21 (stereo not drawn) was tested. Which Activity did it give?
Answer: 40%

Question: How did the Activity turn out when COc1ccc(CNc2nc3c(s2)C(=O)N2CCCC2C(=O)N3)cc1 (stereo not drawn) was run?
Answer: 40%

Question: With O=C1Nc2nc(N3CCOCC3)sc2C(=O)N2CCCC12 (stereo not drawn) as the compound, how does the Activity read?
Answer: 40%
